What was measured:
[1] = biological target: T1, androgen receptor LBD (Panvera) (Rattus norvegicus, UniProt P15207); experiment: Androgen Receptor Filtration Binding Assay (PANVERA); conditions: [3H] R1881 tracer 0.5 nM; read-out: IC50 (nM), Androgen Receptor Binding (Panvera)
T1 construct: 5 pmol androgen receptor LBD (Panvera); purchased Panvera
T1 sequence (P15207 651-882 limits assumed): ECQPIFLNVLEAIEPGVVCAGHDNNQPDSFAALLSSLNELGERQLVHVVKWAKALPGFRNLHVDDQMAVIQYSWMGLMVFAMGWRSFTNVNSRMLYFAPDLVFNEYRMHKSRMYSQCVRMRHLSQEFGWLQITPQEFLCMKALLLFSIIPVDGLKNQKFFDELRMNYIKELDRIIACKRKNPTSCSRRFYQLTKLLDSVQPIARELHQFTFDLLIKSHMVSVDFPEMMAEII

[2] = biological target: T2, androgen receptor (rat ventral prostate cytosol) (Rattus norvegicus, UniProt P15207); experiment: Androgen Receptor Binding Using Rat Ventral Prostate Cytosol; conditions: Concentration 1000 nM; for inhibition at 1 µM: read-out: % Inhibition, Androgen Receptor Binding (Rat Cytosol); for % Inhibition, Androgen Receptor Binding (Rat Cytosol): 1 µM
T2 construct: from tissue; host or cells: ventral prostate cytosol of castrated male Sprague Dawley or Wistar rats
T2 sequence (P15207 1-902): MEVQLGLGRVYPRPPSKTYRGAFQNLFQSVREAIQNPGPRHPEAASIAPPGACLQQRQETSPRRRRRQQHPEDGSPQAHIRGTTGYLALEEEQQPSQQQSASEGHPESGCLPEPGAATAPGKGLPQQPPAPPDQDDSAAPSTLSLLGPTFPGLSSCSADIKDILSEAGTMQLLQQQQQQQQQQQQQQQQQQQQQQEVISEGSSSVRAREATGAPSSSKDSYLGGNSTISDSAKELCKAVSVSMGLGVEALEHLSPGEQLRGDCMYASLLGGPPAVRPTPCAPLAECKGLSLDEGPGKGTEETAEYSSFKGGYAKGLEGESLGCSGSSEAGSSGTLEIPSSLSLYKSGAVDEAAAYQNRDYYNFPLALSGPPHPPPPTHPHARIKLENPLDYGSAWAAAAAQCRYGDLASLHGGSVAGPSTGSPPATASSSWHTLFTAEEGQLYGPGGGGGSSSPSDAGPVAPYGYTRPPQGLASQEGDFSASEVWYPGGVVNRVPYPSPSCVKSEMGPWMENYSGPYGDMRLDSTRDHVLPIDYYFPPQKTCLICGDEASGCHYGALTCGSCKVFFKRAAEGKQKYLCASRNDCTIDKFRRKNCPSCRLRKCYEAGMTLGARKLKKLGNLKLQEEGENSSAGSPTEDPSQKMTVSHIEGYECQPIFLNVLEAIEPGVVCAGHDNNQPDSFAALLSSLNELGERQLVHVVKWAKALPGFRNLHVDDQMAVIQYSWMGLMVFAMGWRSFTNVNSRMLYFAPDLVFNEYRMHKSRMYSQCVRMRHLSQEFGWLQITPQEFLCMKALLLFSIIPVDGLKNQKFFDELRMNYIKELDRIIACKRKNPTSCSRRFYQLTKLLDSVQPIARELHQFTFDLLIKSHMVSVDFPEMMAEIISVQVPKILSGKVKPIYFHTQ
Procedure, shortened: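 Cytosol from castrated rat ventral prostate was incubated overnight at 4°C with 0.5 nM [3H] tracer and compound in TED buffer (10 mM Tris-HCl pH 7.4, molybdate, EDTA, DTT, glycerol).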

With `CC(O)(CSc1ccc(F)cc1)c1cc2ccccc2n1S(C)(=O)=O` (centres unmarked) [Compound 107] the IC50 [1] was 9400 nM and the inhibition at 1 µM [2] was 1.5%.
`CC(O)(CSc1ccc(F)cc1)c1cc2ccccc2[nH]1` (centres unmarked) [Compound 108] gave an IC50 [1] of 7000 nM and an inhibition at 1 µM [2] of 17.5%.
In the case of `CC(O)(CSc1ccc(F)cc1)c1cc2cc(C#N)c(C(F)(F)F)cc2[nH]1` (centres unmarked) [Compound 109], the IC50 [1] is reported as 2600 nM and the inhibition at 1 µM [2] is reported as 49%.
Compound `CC(O)(C[S+]([O-])c1ccccc1)c1cc2cc(Cl)c(C(F)(F)F)cc2[nH]1` (centres unmarked) [Compound 112] has an IC50 [1] of 4100 nM and an inhibition at 1 µM [2] of 39.5%.
`CC(O)(C[S+]([O-])c1ccc(F)cc1)c1cc2cc(Cl)c(C(F)(F)F)cc2[nH]1` (centres unmarked) [Compound 114] was tested, and the IC50 [1] was 4900 nM and the “% Inhibition, Androgen Receptor Binding (Rat Cytosol)” value [2] was 61%.
Compound `CC(O)(C[S+]([O-])c1ccc(Cl)c(Cl)c1)c1cc2cc(Cl)c(C(F)(F)F)cc2[nH]1` (centres unmarked) [Compound 116] has an IC50 [1] of 1750 nM and an inhibition at 1 µM [2] of 28.4%.
In the case of `CC(O)(C[S+]([O-])c1ccc(Cl)c(Cl)c1)c1cc2cc(Cl)c(C(F)(F)F)cc2[nH]1` (centres unmarked) [Compound 117], the IC50 [1] is reported as 2000 nM and the “% Inhibition, Androgen Receptor Binding (Rat Cytosol)” value [2] is reported as 32.5%.
